{"source": "patent US6429204B1", "about": "“Method of inhibiting cancer growth” (University of Miami, priority 1997, dated 2002)", "key": {"[1]": {"system": "C8161 human melanoma cells", "experiment": "In vitro invasion assay (MICS), laminin/collagen IV/gelatin matrix-coated filter", "type": "cell-based", "settings": "3, 20 and 50 μg/mL; for Percent Inhibition of invasive potential: 48 hr", "description": "The in vitro invasive potentials of the control (DMSO only) and chemically-modified tetracycline treated cells were measured using a modified Boyden chamber as previously described (Membrane Invasion Culture System, MICS). An intervening barrier consisting of a polycarbonate filter containing 10 μm pores (Osmonics, Livermore, Calif.) coated with a defined matrix of human laminin/collagen IV/gelatin (Sigma, St. Louis, Mo.) was used for these studies. […] Doxycycline or individual CMTs were then added to different wells of the chamber at 3, 20 or 50 μg/mL 2 hr post-seeding and daily during the assay. After 48 hr, the cells were removed from the lower wells and the number of invasive cells was determined and compared to the original number of cells seeded into the upper wells. Where appropriate, data were corrected for proliferation during the period of the in vitro assay."}, "DU 145": {"system": "DU 145", "experiment": "Cytotoxicity GI50 (MTT and thymidine incorporation), DU 145", "type": "cell-based", "settings": "Homo sapiens", "description": "(§1) To confirm this observation, we compared the cytotoxicities of CMT-3 and doxycycline for a panel of common human prostate cancer cell lines. Cytotoxicity was measured using the MTT assay (see above) and a cellular thymidine incorporation assay as described by Lokeshwar et al. (1995a). The 50% growth inhibition (GI50) values obtained using both assays were identical. As shown in the data summarized in Table 3, below, CMT-3 was two- to eight-fold more cytotoxic than doxycycline.\n(§2) Growth inhibition was calculated from linear regression of the dose-response curves generated for each experiment using log(dose) vs. cell proliferation (% of control). Correlation coefficient (r) was always ≧0.95 (negative). Results are presented as Mean±SEM of at least three GI50 values calculated from each experiment."}, "[2]": {"experiment": "MTS cytotoxicity assay, E-10", "settings": "human, E-10 clone of MDA-MB-231 breast carcinoma cells, percent cytotoxicity, two days", "protocol": "(§3) A panel of chemically modified tetracycline compounds and doxycycline were tested for cytotoxicity against two carcinomas: COLO 205 (a human colon carcinoma-derived cell line) and the E-10 clone of MDA-MB-231 (a human breast carcinoma-derived cell line). Cytoxicity was measured using a conventional assay for viability with a tetrazolium salt (MTS). Cells were grown in media containing the CMTs at concentrations ranging from 5 μM to 100 μM for two days. The cells were then incubated with the MTS for several hours before removal of the supernatant medium for determination of formazan, which is generated only by the viable cells. Results are expressed as percent cytotoxicity, which is simply the percent decline in measured formazan concentration in the sampled medium."}, "ALVA 101": {"system": "ALVA 101", "experiment": "Cytotoxicity GI50 (MTT and thymidine incorporation), ALVA 101", "type": "cell-based", "settings": "Homo sapiens", "description": "as §1, §2"}, "PC-3 tumor cells": {"system": "PC-3 tumor cells", "experiment": "Alamar Blue viability assay, PC-3", "type": "cell-based, human", "from_the_text": "Several cancer cell lines and normal cells were examined in vitro to determine whether tetracycline compounds produce cytotoxic (cell killing) effects. A conventional assay for viability of cultured cells based on redox activity in the cells was employed (Pagé et al. 1993). The assay uses a redox dye Alamar Blue, which is a fluorogenic indicator dye that is converted to a fluorescent red product only when cells are carrying out electron transport activity, a widely accepted criterion of viability.\nCultured cells from three prostate tumor cell lines, LNCAP, DU-145, and PC-3, and normal prostate stromal cells obtained by biopsy of a normal person, were allowed to grow to confluence in multiwell microplates to minimize differences in proliferative activity among the cell types at the time of exposure to the test compound. CMT-3 was added to the wells at concentrations of 10 μM and 20 μM (50 μM also in the case of DU-145). At the start of the experiment, and again at 1, 2, and 3 days, selected wells were incubated with the indicator dye for 3 hr, and the fluorescence was measured on a Cytofluor 2300 fluorescent microplate reader."}, "COLO 205 Cells": {"system": "COLO 205 Cells", "experiment": "MTS cytotoxicity assay, COLO 205", "settings": "two days", "protocol": "as §3"}, "gelatinase B (MMP-9)": {"system": "gelatinase B (MMP-9)", "experiment": "Gelatin zymography of conditioned media of TSU PR1 and MAT LyLu cells, MMP-9", "type": "cell-based", "settings": "48 hours, serum-free medium", "description": "Next we examined whether CMT-3 and doxycycline differentially affect the production of two major classes of gelatinases: gelatinase A (MMP-2) and gelatinase B (MMP-9). Confluent cultures of TSU PR1 and MAT LyLu cells were incubated with various concentrations of doxycycline and CMT-3 for 48 hours in serum-free medium. The conditioned media were then analyzed for MMPs by zymography as described below.\nConditioned media were collected from the cultures that had been treated with doxycycline or CMT-3 for 2 days. Media were then incubated with SDS-gel electrophoresis sample buffer for 30 min at room temperature, and then analyzed by gel electrophoresis on SDS-polyacrylamide gel (8%) containing gelatin (1 mg/mL). Following electrophoresis, the gels were washed twice with 0.25% TRITON® X100 for 30 min each, and incubated for 18 hr at 37° C. in an MMP digestion buffer comprising 20 mM Tris-HCl, pH 7.4, containing 30 mM NaCl, 1 mM PMSF, 10 mM CaCl2, 2 μM ZnSO4, 0.005% Brij35, and 0.02 NaN3 (Lokeshwar 1993a). After incubation, the gels were briefly rinsed in distilled water and stained with 0.25% Coomassie brilliant blue R250 prepared in 40% isopropanol solution for 1 hr. Gels were destained with 7% acetic acid. the locations of MMPs in the gels were visible as clear areas on a blue background, indicative of digested gelatin."}}, "data": [{"smiles": "C[C@H]1c2cccc(O)c2C(=O)C2=C(O)[C@]3(O)C(=O)C(C(N)=O)=C(O)[C@@H](N(C)C)[C@@H]3[C@@H](O)[C@@H]21", "note": "[Doxycycline, 6α-deoxy-5-hydroxy-tetracycline, reference compound]", "values": [{"measurement": "Percent Inhibition of invasive potential", "setting": "[1]", "value": "12-79%"}, {"measurement": "GI50", "setting": "DU 145", "value": "43.6 ± 9.36", "unit": "µM"}, {"measurement": "cytotoxicity at 2 days, 5 µM", "setting": "[2]", "value": 0, "unit": "%"}, {"measurement": "cytotoxicity at 2 days, 10 µM", "setting": "[2]; 10 μM", "value": 0, "unit": "%"}, {"measurement": "cytotoxicity at 2 days, 20 µM", "setting": "[2]; 20 μM", "value": 4.5, "unit": "%"}, {"measurement": "cytotoxicity at 2 days, 50 µM", "setting": "[2]; 50 μM", "value": 24.2, "unit": "%"}, {"measurement": "cytotoxicity at 2 days, 100 µM", "setting": "[2]; 100 μM", "value": 29.5, "unit": "%"}, {"measurement": "GI50", "setting": "ALVA 101", "value": "36.6 ± 2.42", "unit": "µM"}]}, {"smiles": "NC(=O)C1=C(O)CC2CC3Cc4cccc(O)c4C(=O)C3=C(O)C2(O)C1=O", "note": "(stereo not shown) [CMT-3, 6-demethyl-6-deoxy-4-de(dimethylamino)tetracycline]", "values": [{"measurement": "cytotoxicity", "setting": "PC-3 tumor cells; 24 hr", "value": "about 25%"}, {"measurement": "cytotoxicity", "setting": "PC-3 tumor cells; 48 hr", "value": "~50", "unit": "%"}, {"measurement": "cytotoxicity", "setting": "PC-3 tumor cells; 72 hr", "value": "~75", "unit": "%"}, {"measurement": "Type of Inhibition", "setting": "[1]", "value": "dose dependent"}, {"measurement": "Percent Inhibition of invasive potential", "setting": "[1]", "value": "35-74%"}, {"measurement": "GI50", "setting": "DU 145", "value": "5.06 ± 1.18", "unit": "µM"}, {"measurement": "percent cytotoxicity", "setting": "COLO 205 Cells; 5 μM", "value": 25.9, "unit": "%"}, {"measurement": "percent cytotoxicity", "setting": "COLO 205 Cells; 10 μM", "value": 38.9, "unit": "%"}, {"measurement": "percent cytotoxicity", "setting": "COLO 205 Cells; 20 μM", "value": 37, "unit": "%"}, {"measurement": "percent cytotoxicity", "setting": "COLO 205 Cells; 50 μM", "value": 86.7, "unit": "%"}, {"measurement": "percent cytotoxicity", "setting": "COLO 205 Cells; 100 μM", "value": 86.7, "unit": "%"}, {"measurement": "cytotoxicity at 2 days, 5 µM", "setting": "[2]", "value": 0, "unit": "%"}, {"measurement": "GI50", "setting": "ALVA 101", "value": "6.82 ± 0.75", "unit": "µM"}, {"measurement": "MMP-9 levels in conditioned media (zymography)", "setting": "gelatinase B (MMP-9)", "value": "decreased MMP-2 and MMP-9 levels at a lower concentration than did doxycycline"}]}]}
